A word on the inhibition: it is the change of the read-out against control, counted positive when it falls.

For the assay, the target named is T1, SGK2 (Homo sapiens, UniProt Q9HBY8).
T1 construct: purchased Thermo Fisher Scientific (Life Technologies) SelectScreen
Description: SelectScreen Z'LYTE. It counts as biochemical. The procedure, abridged:
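NU5455 was profiled across the SelectScreen Broad panel of kinase activity and binding assays. Z'LYTE reactions such as CSF1R ran at apparent Km ATP, while the Adapta CAMK1 assay used ATP listed as 10. Values are given as percent.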

T1 sequence (Q9HBY8 whole entry): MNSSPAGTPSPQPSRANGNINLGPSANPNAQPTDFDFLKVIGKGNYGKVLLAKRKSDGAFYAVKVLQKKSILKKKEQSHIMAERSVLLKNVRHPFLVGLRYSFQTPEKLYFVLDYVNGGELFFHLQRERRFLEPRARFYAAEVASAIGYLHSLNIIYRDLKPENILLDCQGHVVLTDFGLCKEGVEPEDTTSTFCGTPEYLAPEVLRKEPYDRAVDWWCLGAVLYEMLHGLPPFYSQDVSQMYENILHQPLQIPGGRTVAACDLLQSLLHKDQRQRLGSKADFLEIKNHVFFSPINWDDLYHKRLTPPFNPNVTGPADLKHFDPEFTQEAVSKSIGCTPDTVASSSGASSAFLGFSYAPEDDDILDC

Turning to `CN(C(=O)CN1CCOCC1)c1ccc2sc3c(-c4cccc5c(=O)cc(N6CC7CCC(C6)O7)oc45)cccc3c2c1` [NU5455], the inhibition at 1 µM was -2.7%.

The record behind these values is PMC6934184, “Selective DNA-PKcs inhibition extends the therapeutic index of localized radiotherapy and chemotherapy” (The Journal of Clinical Investigation, 2019).
